Among the data in patent US20090048278A1, “Novel Quinazoline-2,4-Diamine Derivatives and Their Use as Modulators of Small-Conductance Calcium-Activated Potassium Channels” (priority 2005, published 2009) are IC50 and melting point values, retold here.

Counter-ions that a name gives are not always drawn.

The target in one series is T1, hSK3 channels (Homo sapiens, UniProt Q9UGI6).
T1 construct: expressed in transfected cells; host or cells: HEK293
Nature of the series: Whole-cell patch-clamp recording of SK3 current in HEK293 cells expressing hSK3 channels. It is filed as cell-based. The note with it: current at −75 mV, free Ca2+ 0.3-0.4 μM, room temperature, read-out: Ki value (concentration required for decreasing the baseline current to 50% of the initial current). How it is done: The ionic current through small-conductance Ca^2+-activated K^+ channels (SK channels, subtype 3) was recorded using the whole-cell configuration of the patch-clamp technique.
HEK293 tissue culture cells expressing hSK3 channels were grown in DMEM (Dulbecco's Modified Eagle Medium) supplemented with 10% FCS (foetal calf serum) at 37° C. in 5% CO2. At 60-80% confluency, cells were harvested by trypsin treatment and seeded on cover slips.
Cells plated on coverslips are placed in a 15 μl perfusion chamber (flowrate ˜1 ml/min) mounted on an inverted microscope placed on a vibration-free table in a grounded Faraday cage. The experiments were performed at room temperature (20-22° C.). […] Data were stored directly on the hard-disk and analysed by IGOR software (Wavemetrics, Lake Oswega, Oreg., USA).
The whole-cell configuration of the patch-clamp technique was applied. […] Cell capacitance was electronically compensated and the resistance between the pipette and the cell interior (the series resistance, R^5) was measured and compensated for. […]
The intracellular (pipette) solution contained: 154 mM KCl, 10 mM HEPES, 10 mM EGTA. Concentrations of CaCl2 and MgCl2 needed to obtain the desired free concentrations of Ca^2+ (0.3-0.4 μM, Mg^2+ always 1 mM) were calculated by EqCal software (Cambridge, UK) and added. […]
With `N#CCCN(Cc1ccccc1)c1nc(NCc2ccc(Cl)cc2)c2ccccc2n1` [Example 8, N^2-Benzyl-N^4-(4-chlorobenzyl)-N^2-(cyanoethyl)quinazoline-2,4-diamine], the IC50 was determined as 0.3 µM.

Test system in a further series: not given
Experiment: not given
Conditions: not given
Molecule `Clc1ccc(CNc2nc(NCc3ccc(Cl)cc3)c3ccccc3n2)cc1` (as salt: HCl) [Example 1, N^2,N^4-Bis(4-chlorobenzyl)quinazoline-2,4-diamine] yielded a melting point of 263 to 264 °C. Molecule `Fc1ccc(CNc2nc(NCc3ccc(F)c(F)c3)c3ccccc3n2)cc1F` (as salt: HCl) [Example 2, N^2,N^4-Bis(3,4-difluorobenzyl)quinazoline-2,4-diamine] gave a melting point of 275 to 276 °C.

Regarding `Clc1ccc(CNc2nc(NC3CCCc4ccccc43)c3ccccc3n2)cc1` (centres unmarked) (as salt: HCl) [Example 11, N^2-(4-Chlorobenzyl)-N^4-(1,2,3,4-tetrahydronaphthalen-1-yl)quinazoline-2,4-diamine], the melting point was 166 to 167 °C. On the same count and under the same terms, the result for `NCc1cccc(CNc2nc(NCc3ccc(F)c(F)c3)c3ccccc3n2)c1` [Example 3, N^2-(3-Aminomethylbenzyl)-N^4-(3,4-difluorobenzyl)quinazoline-2,4-diamine] reads 148 to 149 °C. Same read-out and setting: to `CN(C)c1ccc(CNc2nc(NCc3ccc(F)c(F)c3)nc3ccccc23)cc1` [Example 5, N^2-(3,4-Difluorobenzyl)-N^4-(4-dimethylaminobenzyl)quinazoline-2,4-diamine] belongs 59 to 60 °C.

Molecule `Clc1ccc(CNc2nc(N3CCCCC3c3ccccc3)nc3ccccc23)cc1` (centres unmarked) [Example 6, (4-Chlorobenzyl)-[2-(2-phenylpiperidin-1-yl)quinazolin-4-yl]amine] gave a melting point of 86 to 87 °C. On to `OCCN(Cc1ccccc1)c1nc(NCc2ccc(Cl)cc2)c2ccccc2n1` [Example 7, N^2-Benzyl-N^4-(4-chlorobenzyl)-N^2-(hydroxyethyl)quinazoline-2,4-diamine], for which the melting point fell in the range of 188 to 190.5 °C.
